Results reported in patent US8592448B2 (OSI Pharmaceuticals, LLC, priority 2008, dated 2013).
Like-named read-outs stand apart in the source and are kept apart here.

Legend:
MKN45 cells = assay: MKN45 cell proliferation assay (CellTiter-Glo); format: cell-based; conditions: MKN45 cell line, 3 days incubation, at least duplicate experiments, read-out: Prolif. IC50
Protocol: The effect of inhibitors on the proliferation of MKN45 cells was determined using the following protocol. MKN45 cells were plated in Corning 3917 96-well white tissue culture treated plates in growth medium (RPMI, 10% FCS) at a density of 5000 cells/well in a total volume of 135 μL and incubated at 37° C., 5% CO2, 95% humidity overnight. The following day, one-tenth volume of a 10× concentration of compounds was added to the wells in an 8-point dilution series. The dilution series was composed of an initial 1:5 dilution of a 10 mM stock of compound in DMSO, followed by serial 1:4 dilutions in DMSO, then a 1:20 dilution in growth medium prior to the 1:10 dilution into the cell plate. Final DMSO concentration on the cells was 0.1%, there were control wells treated with both 0.1% DMSO and no DMSO. The typical dilution range is 10 μM to 0.6 nM. Once the compound was added to the cells, plates were incubated for 3 days at 37° C., 5% CO2 at 95% humidity. On the third day, after allowing all cells and reagents to come to room temperature, 25 μL of CellTiter-Glo reagent (Promega # G7573) was added to the wells. Plates were shaken on a platform for 10 minutes prior to reading luminescence for 0.1 seconds. The signal of the control wells was taken as 100% growth and growth inhibition was expressed as percent of control. IC50 values were determined from the percent of control data using a standard four-parameter model.
(§1) The IC50 values of exemplary compounds of the present invention determined in a cell proliferation assay using the MKN45 cell line according to the procedures described herein in at least duplicate experiments are abbreviated as follows and are shown in Table 2: A, IC50≦0.1 μM; B, 0.1 μM<IC50≦1 μM; C, 1 μM<IC50≦10 μM; D, IC50>10 μM; ND, not determined. The Example # of Table 2 corresponds to the compound example number as illustrated in the Examples section.

phosphorylated c-MET = target: T1, phosphorylated c-MET (Homo sapiens, UniProt P08581); assay: c-MET cell mechanistic assay (phosphorylated c-MET in MKN45 cells); format: cell-based; conditions: MKN45 cell line, four hours incubation, phosphorylated c-MET levels, at least duplicate experiments; read-out: Met mech IC50
T1 construct: endogenous in cells; host or cells: MKN45
Protocol: The cellular activity of the compounds of the present invention may be determined by the following procedure. MKN45 cells were plated in Falcon 3072 96-well plates in growth media (RPMI, 10% FBS, 1% L-glutamine) at a density of 5000 cells/well and incubated at 37° C., 5% CO2 overnight. The following day, one-tenth volume of a 10× concentration of compounds was added to the wells in a 6-point dilution series. The dilutions series was composed of an initial 1:5 dilution in DMSO, followed by a 1:10 dilution in growth media, for a final DMSO concentration on cells of 0.5%. Control wells were treated with 0.5% DMSO. The typical range of dilution was 10 μM to 3 nM. Once compound was added to the cells, plates were incubated for four hours at 37° C., 5% CO2. Plates were then washed in PBS, and lysed in triton-based lysis buffer. Lysates were transferred to a precoated capture plate made by Biosource (Cat # KH00281). The phosphorylated c-MET levels were measured by incubating with a rabbit polyclonal antibody against phosphorylated c-MET ([pYpYpY1230/1234/1235]) followed by an anti-rabbit antibody conjugated to HRP. Signal was measured on a Wallac Victor plate reader at 450 nm. The DMSO signal of the control wells was defined as 100% and the percent of inhibition of phosphorylated c-Met was expressed as percent of control. IC50 values were determined from the percent of control data using a standard four-parameter model.
as §1, with “in a c-MET cell mechanistic” for “in a cell proliferation”, “c-MET cell mechanistic assay using” for “a cell proliferation assay using”, “in Table 3: A, IC50≦0.1” for “in Table 2: A, IC50≦0.1”, “of Table 3 corresponds to” for “of Table 2 corresponds to”

T1 sequence (P08581 25-1390): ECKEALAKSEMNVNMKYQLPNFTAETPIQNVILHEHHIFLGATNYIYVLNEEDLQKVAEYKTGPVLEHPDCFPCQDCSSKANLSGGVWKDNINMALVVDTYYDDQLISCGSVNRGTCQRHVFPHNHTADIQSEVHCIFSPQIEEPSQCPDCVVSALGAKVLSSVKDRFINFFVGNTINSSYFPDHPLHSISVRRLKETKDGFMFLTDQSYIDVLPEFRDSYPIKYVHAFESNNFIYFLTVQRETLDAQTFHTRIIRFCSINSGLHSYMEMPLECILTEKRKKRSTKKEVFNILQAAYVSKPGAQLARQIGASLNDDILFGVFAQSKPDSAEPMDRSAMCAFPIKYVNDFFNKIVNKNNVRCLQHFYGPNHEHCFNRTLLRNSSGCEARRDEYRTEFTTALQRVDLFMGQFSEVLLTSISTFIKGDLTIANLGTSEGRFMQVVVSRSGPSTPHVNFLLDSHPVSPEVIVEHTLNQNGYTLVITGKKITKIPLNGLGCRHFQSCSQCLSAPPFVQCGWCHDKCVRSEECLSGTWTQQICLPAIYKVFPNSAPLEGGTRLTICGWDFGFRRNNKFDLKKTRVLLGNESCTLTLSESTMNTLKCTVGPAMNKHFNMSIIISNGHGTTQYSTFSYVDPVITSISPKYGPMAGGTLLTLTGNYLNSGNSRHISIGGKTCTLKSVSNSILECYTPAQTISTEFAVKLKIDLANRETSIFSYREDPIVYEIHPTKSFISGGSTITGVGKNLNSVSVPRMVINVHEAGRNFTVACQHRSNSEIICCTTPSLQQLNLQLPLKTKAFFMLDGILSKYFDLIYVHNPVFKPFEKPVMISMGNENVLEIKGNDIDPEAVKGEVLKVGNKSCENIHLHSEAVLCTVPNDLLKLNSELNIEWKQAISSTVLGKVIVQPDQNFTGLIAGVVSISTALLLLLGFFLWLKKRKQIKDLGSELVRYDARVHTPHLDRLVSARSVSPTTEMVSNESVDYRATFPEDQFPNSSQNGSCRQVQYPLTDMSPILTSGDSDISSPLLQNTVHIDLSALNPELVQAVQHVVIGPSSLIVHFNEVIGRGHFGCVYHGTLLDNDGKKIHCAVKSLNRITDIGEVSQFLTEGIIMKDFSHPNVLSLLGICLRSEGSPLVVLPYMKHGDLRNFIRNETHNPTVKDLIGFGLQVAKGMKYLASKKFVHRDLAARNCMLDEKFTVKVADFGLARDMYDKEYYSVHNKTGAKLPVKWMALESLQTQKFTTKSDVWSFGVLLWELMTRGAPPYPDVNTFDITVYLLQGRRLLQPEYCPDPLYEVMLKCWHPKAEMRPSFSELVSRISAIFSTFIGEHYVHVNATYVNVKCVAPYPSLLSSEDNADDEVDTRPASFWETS

IC50 (MKN45 cells; Homo sapiens, MKN-45, 72 h) [nM] | IC50 (phosphorylated c-MET) [nM] | IC50 (MKN45 cells) [nM] | Compound
100 to 1000 | 100 to 1000 |  | CC(c1c(Cl)ccc(F)c1Cl)c1c[nH]c2ncc(C3=CCN(C=O)CC3)cc12 (centres unmarked) [Example 38, 4-{3-[1-(2,6-Dichloro-3-fluorophenyl)ethyl]-1H-pyrrolo[2,3-b]pyridin-5-yl}-3,6-dihydro-2H-pyridine-1-carbaldehyde]
≤ 100 | ≤ 100 |  | C[C@H](c1c(Cl)ccc(F)c1Cl)c1c[nH]c2ncc(-c3cnn(CC(=O)N4CCOCC4)c3)cc12 [Example 78, 2-(4-{3-[(S)-1-(2,6-Dichloro-3-fluorophenyl)ethyl]-1H-pyrrolo[2,3-b]pyridin-5-yl}-pyrazol-1-yl)-1-morpholin-4-ylethanone]
≤ 100 | ≤ 100 |  | C[C@H](c1c(Cl)ccc(F)c1Cl)c1c[nH]c2ncc(-c3cnn(C4CCN(S(C)(=O)=O)CC4)c3)cc12 [Example 73, 3-[(S)-1-(2,6-Dichloro-3-fluorophenyl)ethyl]-5-[1-(1-methane-sulfonylpiperidin-4-yl)-1H-pyrazol-4-yl]-1H-pyrrolo[2,3-b]pyridine]
100 to 1000 | ≤ 100 |  | C[C@H](c1c(Cl)ccc(F)c1Cl)c1c[nH]c2ncc(-c3ccc(C(=O)N4CCNCC4)cc3)cc12 [Example 69, (4-{3-[(S)-1-(2,6-Dichloro-3-fluorophenyl)ethyl]-1H-pyrrolo[2,3-b]pyridin-5-yl}phenyl)piperazin-1-ylmethanone]
≤ 100 | ≤ 100 |  | CC(c1c(Cl)ccc(F)c1Cl)c1c[nH]c2ncc(-c3cnn(C4CCN(C(=O)N(C)C)CC4)c3)cc12 (centres unmarked) [Example 28, 4-(4-{3-[1-(2,6-Dichloro-3-fluorophenyl)ethyl]-1H-pyrrolo[2,3-b]pyridin-5-yl}-pyrazol-1-yl)-piperidine-1-carboxylic acid dimethylamide]
100 to 1000 | ≤ 100 |  | CC(c1c(Cl)ccc(F)c1Cl)c1c[nH]c2ncc(-c3cnn(C4CNC4)c3)cc12 (centres unmarked) [Example 53, 5-(1-Azetidin-3-yl-1H-pyrazol-4-yl)-3-[1-(2,6-dichloro-3-fluoro-phenyl)ethyl]-1H-pyrrolo[2,3-b]pyridine]
100 to 1000 | ≤ 100 |  | CC(c1c(Cl)ccc(F)c1Cl)c1c[nH]c2ncc(-c3cnn(C4CN(S(C)(=O)=O)C4)c3)cc12 (centres unmarked) [Example 57, 3-[1-(2,6-Dichloro-3-fluorophenyl)-ethyl]-5-[1-(1-methanesulfonylazetidin-3-yl)-1H-pyrazol-4-yl]-1H-pyrrolo[2,3-b]pyridine]
≤ 100 | ≤ 100 |  | CC(=O)N1CCC(n2cc(-c3cnc4[nH]cc(C(C)c5c(Cl)ccc(F)c5Cl)c4c3)cn2)CC1 (centres unmarked) [Example 48, 1-[4-(4-{3-[1-(2,6-Dichloro-3-fluorophenyl)ethyl]-1H-pyrrolo[2,3-b]pyridin-5-yl]-pyrazol-1-yl}-piperidin-1-yl)-ethanone]
100 to 1000 | 100 to 1000 |  | CC(c1c(Cl)ccc(F)c1Cl)c1c[nH]c2ncc(C3=CCN(C(=O)N(C)C)CC3)cc12 (centres unmarked) [Example 36, 4-{3-[1-(2,6-Dichloro-3-fluorophenyl)-ethyl]-1H-pyrrolo[2,3-b]pyridin-5-yl}-3,6-dihydro-2H-pyridine-1-carboxylic acid dimethylamide]
 | ≤ 100 | 100 to 1000 | 2-(4-{3-[(S)-1-(2,6-Dichloro-3-fluorophenyl)ethyl]-1H-pyrrolo[2,3-b]-pyridin-5-yl}-pyrazol-1-yl)-acetamide [Example 75]
100 to 1000 | 100 to 1000 |  | CC(c1c(Cl)ccc(F)c1Cl)c1c[nH]c2ncc(-c3ccc(N)cc3)cc12 (centres unmarked) [Example 18, 4-{3-[1-(2,6-Dichloro-3-fluorophenyl)ethyl]-1H-pyrrolo[2,3-b]pyridin-5-yl}phenylamine]
≤ 100 | ≤ 100 |  | CC(c1c(Cl)ccc(F)c1Cl)c1c[nH]c2ncc(-c3cnn(CCN4CCOCC4)c3)cc12 (centres unmarked) [Example 31, 3-[1-(2,6-Dichloro-3-fluorophenyl)ethyl]-5-[1-(2-morpholin-4-ylethyl)-1H-pyrazol-4-yl]-1H-pyrrolo[2,3-b]pyridine]
100 to 1000 | ≤ 100 |  | CC(c1c(Cl)ccc(F)c1Cl)c1c[nH]c2ncc(-c3cnn(C4CN(C(N)=O)C4)c3)cc12 (centres unmarked) [Example 56, 3-(4-{3-[1-(2,6-Dichloro-3-fluorophenyl)ethyl]-1H-pyrrolo[2,3-b]pyridin-5-yl}-pyrazol-1-yl)-azetidine-1-carboxamide]
100 to 1000 | ≤ 100 |  | CC(c1c(Cl)ccc(F)c1Cl)c1c[nH]c2ncc(-c3cnn(C)c3)cc12 (centres unmarked) [Example 27, 3-[1-(2,6-Dichloro-3-fluorophenyl)-ethyl]-5-(1-methyl-1H-pyrazol-4-yl)-1H-pyrrolo[2,3-b]pyridine]
100 to 1000 | ≤ 100 |  | CC(=O)N1CC(n2cc(-c3cnc4[nH]cc(C(C)c5c(Cl)ccc(F)c5Cl)c4c3)cn2)C1 (centres unmarked) [Example 58, 1-[3-(4-{3-[1-(2,6-Dichloro-3-fluorophenyl)-ethyl]-1H-pyrrolo[2,3-b]pyridin-5-yl}-pyrazol-1-yl)-azetidin-1-yl]-ethanone]
≤ 100 | ≤ 100 |  | CC(c1c(Cl)ccc(F)c1Cl)c1c[nH]c2ncc(C3=CCN(C(=O)CO)CC3)cc12 (centres unmarked) [Example 43, 1-(4-{3-[1-(2,6-Dichloro-3-fluorophenyl)ethyl]-1H-pyrrolo[2,3-b]pyridin-5-yl}-3,6-dihydro-2H-pyridin-1-yl)-2-hydroxyethanone]
≤ 100 | ≤ 100 |  | CNC(=O)N1CCC(n2cc(-c3cnc4[nH]cc(C(C)c5c(Cl)ccc(F)c5Cl)c4c3)cn2)CC1 (centres unmarked) [Example 51, 4-(4-{3-[1-(2,6-Dichloro-3-fluorophenyl)ethyl]-1H-pyrrolo[2,3-b]pyridin-5-yl}-pyrazol-1-yl)-piperidine-1-carboxylic acid methylamide]
100 to 1000 | 100 to 1000 |  | CC(c1c(Cl)ccc(F)c1Cl)c1c[nH]c2ncc(-c3ccc(C(=O)N(C)C)cc3)cc12 (centres unmarked) [Example 3, 4-{3-[1-(2,6-Dichloro-3-fluorophenyl)ethyl]-1H-pyrrolo[2,3-b]pyridin-5-yl}-N,N-dimethylbenzamide]
100 to 1000 | 100 to 1000 |  | CC(c1c(Cl)ccc(F)c1Cl)c1c[nH]c2ncc(-c3ccc(C(=O)N4CCCC4)cc3)cc12 (centres unmarked) [Example 4, (4-{3-[1-(2,6-Dichloro-3-fluorophenyl)ethyl]-1H-pyrrolo[2,3-b]pyridin-5-yl}phenyl)pyrrolidin-1-ylmethanone]
1000 to 10000 | 100 to 1000 |  | COCCNC(=O)c1ccc(-c2cnc3[nH]cc(C(C)c4c(Cl)ccc(F)c4Cl)c3c2)cc1 (centres unmarked) [Example 6, 4-{3-[1-(2,6-Dichloro-3-fluorophenyl)ethyl]-1H-pyrrolo[2,3-b]pyridin-5-yl}-N-(2-methoxyethyl)benzamide]
100 to 1000 | ≤ 100 |  | CC(c1c(Cl)ccc(F)c1Cl)c1c[nH]c2ncc(C3=CCN(C(N)=O)CC3)cc12 (centres unmarked) [Example 33, 4-{3-[1-(2,6-Dichloro-3-fluorophenyl)ethyl]-1H-pyrrolo[2,3-b]pyridin-5-yl}-3,6-dihydro-2H-pyridine-1-carboxamide]

Compound | IC50 (MKN45 cells; Homo sapiens, MKN-45, 72 h) [nM] | IC50 (phosphorylated c-MET) [nM] | IC50 (MKN45 cells) [nM]
CC(c1c(Cl)ccc(F)c1Cl)c1c[nH]c2ncc(C3=CCNCC3)cc12 (centres unmarked) [Example 32, 3-[1-(2,6-Dichloro-3-fluorophenyl)-ethyl]-5-(1,2,3,6-tetrahydropyridin-4-yl)-1H-pyrrolo[2,3-b]pyridine] | 100 to 1000 | 100 to 1000 | 
